EC50 and CC50 data for 53 compounds are collected here from ChEMBL document CHEMBL1156829 (Proc Natl Acad Sci U S A, 2008).

For series [1], the system named is Plasmodium falciparum. Kind of series: NOVARTIS: Inhibition of Plasmodium falciparum 3D7 (drug-susceptible) proliferation in erythrocyte-based infection assay. In kind it is functional, organism-based. The following applies: Plasmodium falciparum, 3D7.
The subject of series [2] is Plasmodium falciparum. Kind of series: NOVARTIS: Inhibition of Plasmodium falciparum W2 (drug-resistant) proliferation in erythrocyte-based infection assay. In kind it is functional, organism-based. The conditions noted are these: Plasmodium falciparum, W2; read-out: EC50.
Series [3] is described as follows: NOVARTIS: Cytotoxicity against human hepatocellular carcinoma cell line (Huh7). In kind it is toxicity, cell-based, Huh-7. The conditions noted are these: Huh7 cells (hepatocellular carcinoma cell line).

The EC50 is the concentration that produces a half-maximal response. What is called CC50 is the concentration that lowers cell viability or growth by half. Low readings indicate greater toxicity to the cells, high ones lower toxicity to the cells.

On to `CC1CNC2C(C)C3C(CC4C5CCC6CC(N)CCC6(C)C5CCC43C)OC2(O)C1` (centres undefined), for which the results for the EC50 in series [1] and in series [2] were 863 nM and less than 12.7 nM, respectively. In series [3], this compound yielded a half-maximal cytotoxic concentration (CC50) greater than 10000 nM.
`CCc1cccc2c(C#N)cn(CC(=O)Nc3ccc(OC)cc3)c12`: the concentration giving a half-maximal response (EC50) in series [1] came out at 225 nM; in series [2], 126 nM. Also, the half-maximal cytotoxic concentration (CC50) in series [3] is greater than 100000 nM.
`CCOc1cc2c(cc1OCC)C(c1cc(OC)c(O)cc1Cl)NCC2` (centres undefined): the EC50 in series [1] was 362 nM; in series [2], 95.8 nM. The 50% cytotoxic concentration (CC50) in series [3] is 74200 nM.
The matching figures for `CCOc1ccc(-n2c(=S)sc3c(=O)n(-c4ccc(C)cc4)c(SCC(=O)Nc4cc(OC)ccc4OC)nc32)cc1`: 285 nM, 123 nM and greater than 100000 nM.
The corresponding values for `CC=Cc1n(C)c2ccccc2[n+]1C` are 613 nM, 129 nM and greater than 100000 nM.
Take `Oc1c(C(Nc2ccccn2)c2cccc(Cl)c2Cl)ccc2cccnc12` (centres undefined): the 50% effective concentration (EC50) came to 174 nM in series [1] and 132 nM in series [2]. The 50% cytotoxic concentration (CC50) in series [3] is greater than 100000 nM.
The corresponding values for `N=c1c2c(n(Cc3ccc([N+](=O)[O-])cc3)c3c1CCC3)CCCC2` are 121 nM, 130 nM and greater than 100000 nM.
The corresponding values for `FC(F)(F)c1cccc(NC(=S)N2CCCC2c2ccccc2C(F)(F)F)c1` (centres undefined) are 214 nM, less than 13 nM and greater than 10000 nM.
The matching figures for `Cc1ccc(CSCc2ccc(C(=O)NC3CC3)o2)cc1`: 418 nM, 133 nM and greater than 100000 nM.
As for `CC(NCc1ccccc1)c1cc(Cl)ccc1O` (centres undefined), the EC50 in series [1] amounted to 592 nM; in series [2], 97.2 nM. Moreover, it took 73300 nM to reach half-maximal cytotoxicity in series [3] (CC50).
In the case of `CCCCC(CC)C(=O)NCCCCNc1ccnc2cc(Cl)ccc12` (centres undefined), the results for the concentration giving a half-maximal response (EC50) in series [1] and in series [2] were 297 nM and less than 13.4 nM, respectively. In series [3], this compound showed a CC50 greater than 10100 nM.
`CC(=O)NC1=NN(C(C)=O)C(C)(c2ccc([N+](=O)[O-])cc2)S1` (centres undefined): the concentration giving a half-maximal response (EC50) was 497 nM in series [1] and 132 nM in series [2]. Moreover, the CC50 in series [3] was greater than 100000 nM.
With `CCOc1ccc(C2c3[nH]c4ccccc4c3CCN2C(=O)c2cc3cc(Br)ccc3o2)cc1` (centres undefined), the 50% effective concentration (EC50) in series [1] was 316 nM; in series [2], 135 nM. Also, in series [3], the CC50 is greater than 100000 nM.
The matching figures for `CCOC(=O)C1=C(C)NC2=C(C(=O)C(C(=O)OCC)C(c3ccc(OC)cc3)C2)C1c1ccc([N+](=O)[O-])cc1` (centres undefined): 685 nM, 134 nM and greater than 100000 nM.
The corresponding values for `C[n+]1oc(C=Cc2ccccc2)cc1C=Cc1ccccc1` are 68.8 nM, 28.8 nM and 21200 nM.
`CN(CCCNc1ccnc2cc(Cl)ccc12)C(=O)COCc1ccccc1`: the EC50 in series [1] is 110 nM; in series [2], less than 13.5 nM. Further, the cytotoxic concentration (CC50) in series [3] was greater than 10000 nM.
The matching figures for `CCOc1cc(C2CC(=O)NC3=C2C(=O)CC(C)(C)C3)ccc1OC(C)C` (centres undefined): 284 nM, 136 nM and greater than 100000 nM.
The corresponding values for `CC(C)(C)NC(=O)c1cn(C2CCCCC2)cc(C(=O)NC2CCN(Cc3ccccc3)C2)c1=O` (centres undefined) are 188 nM, less than 12.8 nM and greater than 10000 nM.
The corresponding values for `O=C(Nc1ccc(C(=O)Nc2cccc(C3=NCCN3)c2)cc1)c1ccc(C2=NCCN2)cc1` are 193 nM, 128 nM and greater than 100000 nM.
As for `CC(C)(C)c1nn(-c2ccc(Cl)cc2)c2[nH]c(=O)c(CNCc3ccc(Cl)cc3)cc12`, the EC50 is 351 nM in series [1] and 129 nM in series [2]. This compound came in with a CC50 in series [3] greater than 100000 nM.
The corresponding values for `CCN1CCCC(Nc2ccnc3cc4ccccc4cc23)C1` (centres undefined) are 8.24 nM, 4.81 nM and 3750 nM.
The matching figures for `CCOC(=O)c1cnc2c(OC)cccc2c1Nc1ccc(C(C)=O)cc1`: 592 nM, 123 nM and greater than 100000 nM.
The matching figures for `Nc1cc(C(=O)Nc2ccc(C3=NCCCN3)cc2)ccc1C(=O)Nc1ccc(C2=NCCCN2)cc1`: 190 nM, 123 nM and greater than 100000 nM.
For the compound `COc1ccc(C2CC(=O)C3=C(C2)NC(=O)CC3c2ccc(C(F)(F)F)cc2)cc1OC` (centres undefined), the half-maximal effective concentration (EC50) turned out to be 182 nM in series [1] and 123 nM in series [2]. The 50% cytotoxic concentration (CC50) in series [3] was greater than 100000 nM.
Regarding `O=C(NC(=CC=Cc1ccccc1)C(=O)N1CCOCC1)c1ccccc1`, the concentration for a half-maximal effect (EC50) in series [1] was 3860 nM; in series [2], 122 nM. Moreover, the CC50 in series [3] is greater than 100000 nM.
The corresponding values for `Cc1noc(C)c1S(=O)(=O)N(Cc1ccccc1)CC(O)CN1CCC(NC(=O)c2ccc(F)cc2)C1` (centres undefined) are 447 nM, less than 12.1 nM and greater than 10000 nM.
The corresponding values for `CCOc1cc(C2CC(=O)NC3=C2C(=O)CC(c2cc(OC)ccc2OC)C3)ccc1O` (centres undefined) are 431 nM, 123 nM and greater than 100000 nM.
For the compound `COC(=O)c1ccc(N(C(=O)Cc2c[nH]c3ccccc23)C(C(=O)NC2CCCCC2)c2cccnc2)cc1` (centres undefined), the EC50 in series [1] was 232 nM; in series [2], 132 nM. Also, in series [3], the CC50 was greater than 100000 nM.
`CC(C)CN1C(=O)c2ccccc2C(C(=O)Nc2ccc(F)c(Cl)c2)C1c1cccs1` (centres undefined): the EC50 in series [1] amounted to 121 nM; in series [2] it was 120 nM. For the same compound, the 50% cytotoxic concentration (CC50) in series [3] is greater than 95200 nM.
The matching figures for `CC(=O)c1cccc(NC(=O)NC2CC3CCCC(C2)N3CCc2ccccc2)c1` (centres undefined): 17.3 nM, 12.6 nM and greater than 10000 nM.
The corresponding values for `COc1ccc(C2CC(=O)C3=C(C2)NC(C)=C(C(=O)OC2CCCC2)C3c2ccc(Cl)cc2)cc1` (centres undefined) are 260 nM, 125 nM and greater than 100000 nM.
The corresponding values for `Cc1cc(F)ccc1NC(=O)C(C)n1c2ccccc2c2nc(=O)cc(C)n21` (centres undefined) are 283 nM, 126 nM and greater than 100000 nM.
With `Nc1nonc1-n1nnc(C(=O)NN=Cc2ccc(F)c(Br)c2)c1-c1ccc([N+](=O)[O-])cc1`, the EC50 was found to be 292 nM in series [1] and 128 nM in series [2]. In series [3], this compound yielded a CC50 greater than 100000 nM.
The matching figures for `O=C(Nc1cc(Cl)cc(Cl)c1)Nc1ccccc1C(=O)NCC1CC1`: greater than 1180 nM, less than 12.4 nM and greater than 10000 nM.
The matching figures for `Cc1ccc2c(c1)C(C)(c1ccc(Cl)cc1)CC(C)(C)N2C(=O)COc1ccc2ccccc2c1` (centres undefined): greater than 12500 nM, 124 nM and greater than 100000 nM.
Take `COc1cc(NC(C)CCCN(Cc2ccc(N(C)C)cc2)S(=O)(=O)c2c(C)cc(C)cc2C)c2ncccc2c1` (centres undefined): the concentration for a half-maximal effect (EC50) in series [1] was 533 nM; in series [2], less than 13.4 nM. In series [3], this compound displayed a half-maximal cytotoxic concentration (CC50) greater than 10600 nM.
The matching figures for `CCOC(=O)C1=C(C)NC2=C(C(=O)CC(c3ccc(OC)c(OC)c3)C2)C1c1ccc(SC)cc1` (centres undefined): 302 nM, 127 nM and greater than 100000 nM.
The corresponding values for `COc1ccc(C=NNc2nc3cc(Cl)ccc3[nH]2)cc1OC` are 239 nM, 111 nM and greater than 89800 nM.
The matching figures for `CCOC(=O)C(=CNc1ccc(I)cn1)C(=O)OCC`: 190 nM, less than 12.6 nM and greater than 10000 nM.
Turning to `COC(=O)[C@@H]1C[C@@H](NC(=O)c2ccc(OC)cc2OC)CN1Cc1ccc(C)cc1C`, the values for the half-maximal effective concentration (EC50) in series [1] and in series [2] were 303 nM and 126 nM, respectively. This compound displayed a CC50 in series [3] greater than 100000 nM.
As for `COc1ccc(-c2nc(SCCCCC(=O)N3CCN(C(c4ccccc4)c4ccccc4)CC3)[nH]c2-c2ccc(OC)cc2)cc1`, the half-maximal effective concentration (EC50) in series [1] was greater than 1180 nM; in series [2] it was less than 13.4 nM. In addition, the cytotoxic concentration (CC50) in series [3] was greater than 10000 nM.
The matching figures for `c1ccc(C2=NN(c3ccccc3)N(c3ccccc3)N2)cc1`: 137 nM, 129 nM and greater than 100000 nM.
The matching figures for `Cc1cccc(N(C)c2nc3ccccc3c3nnc(C)n23)c1`: 119 nM, 134 nM and greater than 100000 nM.
The corresponding values for `COCCNC(=O)[C@@H]1C[C@@H](Sc2nc3ccccc3[nH]2)CN1Cc1ccc2ccccc2c1` are 638 nM, 135 nM and greater than 100000 nM.
As to `COC(=O)C1C(=O)C2=C(CC1C)NC(=O)CC2c1ccc(Cl)cc1Cl` (centres undefined), the EC50 stood at 991 nM in series [1] and 128 nM in series [2]. The CC50 in series [3] was greater than 100000 nM.
The corresponding values for `CC1(C)C(=O)C2(CCCCC2)C(=O)OC1/C=C/c1ccccc1` (centres undefined) are greater than 1250 nM, 12.3 nM and greater than 10000 nM.
The corresponding values for `O=C(Nc1cc(C(=O)N2CCC(Cc3ccccc3)CC2)ccc1N1CC2CC(C1)c1cccc(=O)n1C2)c1cccs1` (centres undefined) are 74.4 nM, 64.4 nM and 49700 nM.
The matching figures for `Oc1ccccc1Nc1nc(-c2ccccc2O)nc2ccccc12`: 577 nM, 136 nM and greater than 100000 nM.
Turning to `O=C(Nc1ccc(C2=NCCN2)cc1)c1ccc(NC(=O)c2ccc(C3=NCCN3)cc2)cc1`, the EC50 in series [1] was determined as 81.9 nM; in series [2], 13.5 nM. In addition, in series [3], the cytotoxic concentration (CC50) was greater than 10000 nM.
Regarding `N=c1c2c(n(Cc3ccc(Cl)cc3)c3c1CCC3)CCC2`, the concentration for a half-maximal effect (EC50) was 62.7 nM in series [1] and 125 nM in series [2]. In series [3], this compound returned a cytotoxic concentration (CC50) greater than 100000 nM.
The matching figures for `CC(C)CN1C(=O)c2ccccc2C(C(=O)Nc2ccc(F)cc2F)C1c1cccs1` (centres undefined): 219 nM, 129 nM and greater than 100000 nM.
The matching figures for `O=C(C=Cc1cccnc1)C12CC3CC(CC(C3)C1)C2`: 216 nM, 122 nM and greater than 100000 nM.
With `CN(C)c1cc[n+](CC(=O)c2ccc(Cl)cc2)cc1`, the EC50 in series [1] is 168 nM; in series [2] it was 132 nM. The same compound came in with a CC50 in series [3] greater than 100000 nM.
